One assay deals with RAW 264.7 macrophages. Nature of the assay: NO production of stimulated macrophages (Griess reaction). It counts as cell-based, mouse. Conditions: for NO-release of LPS-stimulated macrophages: E. coli or P. aeruginosa LPS, 10 ng/ml; for NO production: stimulated with E. coli LPS, LTA, PGN, zymosan A. The protocol:
(§1) 3.5×10^5 cells were seeded in 96-well tissue culture plates (Nunc, 167008) in phenol red-free DMEM (Gibco) supplemented with 10% FBS and antibiotics. Following 6 hours of incubation to permit adherence, cells were stimulated with 10 ng/mL E. coli (0111:84) LPS (Sigma), lipoteichoic acid, peptioglycan, or zymosan, with and without peptides at the indicated doses (see figure legends and figures). The levels of NO in culture supernatants were determined after 24 hours from stimulation using the Griess reaction. Briefly, nitrite, a stable product of NO degradation, was measured by mixing 50 μl of culture supernatants with the same volume of Griess reagent (Sigma, G4410) and reading absorbance at 550 nm after 15 min. Phenol-red free DMEM with FBS and antibiotics were used as a blank. A standard curve was prepared using 0-80 μM sodium nitrite solutions in ddH20.
as §1, with “coli” for “coli (0111:84)”, “(0111:B4)” for “(Sigma), lipoteichoic acid, peptioglycan, or zymosan,”, “peptide of various doses.” for “peptides at the indicated doses (see figure legends and figures).”, “reaction (Pollock, Forstermann et al. 1991).” for “reaction.”

Assay [1] deals with E. coli, P. aeruginosa and S. aureus. The experiment in a line: Viable count assay. Conditions: for Time within which bacterial killing occurred: 30 μM, pH 7.4, 20% plasma; for Time within which bacterial killing occurred / Antibacterial activity in viable count assays: 0.15 M NaCl, 10 mM Tris; for Antibacterial activity in viable count assays: with or without 20% human citrate plasma. It counts as cell-based. As for the experimental part: E. coli ATCC 25922 bacteria were grown to mid-logarithmic phase in Todd-Hewitt (TH) medium. Bacteria were washed and diluted in 10 mM Tris, pH 7.4 containing 5 mM glucose. E. coli ATCC 25922 ([…]; 2×10^6 cfu/ml) were incubated, at 37° C. for 2 h with peptides at the indicated concentrations. Other experiments with the TFPI-peptides and LL-37 were performed in 10 mM Tris, pH 7.4, containing also 0.15 M NaCl, with normal or heat inactivated 20% citrate-plasma (PP). Serial dilutions of the incubation mixture were plated on TH agar, followed by incubation at 37° C. overnight and cfu determination.
(§2) E. coli ATCC 25922, P. aeruginosa 15159, or S. aureus ATCC 29213 bacteria were grown to mid-logarithmic phase in Todd-Hewitt (TH) medium (Becton and Dickinson, Maryland, USA). The microorganisms were then washed and diluted in 10 mM Tris, pH 7.4 containing 5 mM glucose. Following this, bacteria (50 μl; 2×10^6 cfu/ml) were incubated, at 37° C. for 2 hours, with KYE28, KYE21 or LL-37 (at 0.03, 0.06, 0.3, 0.6, 3, 6, 30, 60 μM) in 10 mM Tris, 0.15 M NaCl, with or without 20% human citrate-plasma. To quantify the bactericidal activity, serial dilutions of the incubation mixtures were plated on TH agar, followed by incubation at 37° C. overnight and the number of colony-forming units was determined. 100% survival was defined as total survival of bacteria in the same buffer and under the same condition in the absence of peptide. Significance was determined using the statistical software SigmaStat (SPSS Inc., Chicago, Ill., USA).
as §2, with “NLF20” for “KYE28, KYE21”, “citrate-plasma. In the experiments using 50% whole blood, S. aureus ATCC 29213 and P. aeruginosa ATCC 27853 bacteria (50 μl; 2×10^8 cfu/ml) were incubated at 37° C. for 1 hour in the presence of peptide at 60 (for P. aeruginosa) and 120 μM (P. aeruginosa and S. aureus).” for “citrate-plasma.”

For assay [2], the system named is intrinsic pathway of coagulation. The experiment in a line: Activated partial thromboplastin time (aPTT). The settings on record: normal human plasma. The protocol: All clotting times were measured using an Amelung coagulometer. Activated partial thromboplastin time (aPTT) was measured by incubating the peptides diluted in sterile water at the indicated concentrations, with 100 μL citrated human plasma for 1 minute followed by the addition of 100 μL aPTT reagent (aPTT Automate, Diagnostica Stago) for 60 seconds at 37° C. Clotting was initiated by the addition of 100 μL of a 25-mM CaCl2 solution. In the prothombrin time assay (PT), clotting was initiated by the addition of 100 μL Thrombomax with calcium (PT reagent; Sigma-Aldrich). For measuring the thrombin clotting time (TCT), clotting was initiated by the addition of 100 μL Accuclot thrombin time reagent (TCT reagent; Sigma-Aldrich).
All clotting times were analyzed using a coagulometer (Amelung, Lemgo, Germany). The prothrombin time (PT) and the Thrombin clotting time (TCT) were measured as followed: Hundred microliter of fresh human citrate plasma together with indicated concentrations of NLF20 were pre-warmed for 60 sec at 37° C. before clot formation was initiated by adding 100 μl a clotting reagent. (PT-thromboplastin reagent (Trinity Biotech), TCT: Thrombin reagent (Technoclone)). To record the activated partial thromboplastin time (aPTT), 100 μl of a kaolin-containing solution (Technoclone) was add to the plasma-peptide mix and incubated for 200 sec before clot formation was initiated by adding 100 μl of 30 mM fresh CaCl2 solution.

No end group written: not given here.

Turning to KYEITTIHNLFRKLTHRLFRRNFGYTLR [KYE28], in the assay with RAW 264.7 macrophages, the “NO-release of LPS-stimulated macrophages” value is given as “significantly inhibited NO-release” and the NO production result was “blocks NO production”. Moreover, in assay [1], the “Time within which bacterial killing occurred” value was in the range of 5 to 20 min and the “Antibacterial activity in viable count assays” value is reported as “significant antibacterial activity”. The “Activated partial thromboplastin time (aPTT)” value in assay [2] was “impair the intrinsic pathway of coagulation”.

With KYEITTIHNLFRKLTHRLFRR [KYE21], in the assay with RAW 264.7 macrophages, the “NO-release of LPS-stimulated macrophages” value is “significantly inhibited NO-release” and the NO production entry was “blocks NO production”. Moreover, the “Antibacterial activity in viable count assays” value in assay [1] is “significant antibacterial activity”. In addition, the “Activated partial thromboplastin time (aPTT)” value in assay [2] was “only minor blocking of the aPTT”.

In the case of NLFRKLTHRLFRRNFGYTLR [NLF20], the “Concentration eliminating LPS-induced NO-responses” value in the assay with RAW 264.7 macrophages (10 ng/ml E. coli or P. aeruginosa LPS) lay within 20 to 40 µM. Also, in the assay on RAW 264.7 macrophages, the NO production result was “blocks NO production”. Further, in assay [1], the “Time within which bacterial killing occurred” value was in the range of 5 to 20 min and the “Antibacterial activity in viable count assays” value is “displays significant antibacterial activity”. Further, the “Antibacterial activity in presence of human citrated plasma (viable count)” value in assay [1] (20% human citrate plasma vs buffer) is “retained, and for E. coli and S. aureus, even enhanced”. The “Activated partial thromboplastin time (aPTT)” value in assay [2] was “impaired the intrinsic pathway of coagulation”.

Source of the values: patent US9169315B2, “Heparin cofactor II fragments with anti-inflammatory and anti-coagulant activity” (XIMMUNE AB, priority 2009, dated 2015).
